# Measurements published in US9775902B2, “Compounds and methods for treatment of stroke” (FIBROGEN, INC, priority 2006, dated 2017).
# How the values were obtained:
# [1] = tested on: Wistar rats, transient occlusion of the MCA; assay: Rat tMCAO, 28 days: lesion area, neuronal degeneration, brain tissue loss (Fluoro-Jade B); assay type: in vivo; settings: 60 mg/kg p.o. at 1.5 and 24 hours after reperfusion then 30 mg/kg every other day, vs non-treated control
# Method: In another series of experiments, the long term effect of administration of compounds of the present invention on stroke and brain tissue damage associated with stroke was examined. For these studies, the effect of compounds of the present invention on lesion area, neuronal degeneration, and brain tissue loss following stroke was examined 28 days after transient MCA occlusion. Wistar rats (320 g) were subjected to transient occlusion of the MCA as described above. Compound F (60 mg/kg) was administered by oral gavage at 1.5 hours and 24 hours after reperfusion and subsequently every other day (using a dose of 30 mk/kg, p.o.) for 28 days. Twenty-eight days after transient MCA occlusion, animals were anesthetized with 3% isoflurane in oxygen and transcardially perfused with 100 ml of 0.9% saline solution (Hospira Inc, Lake Forest Ill.). Brains were removed and sliced into 6 coronal sections, 2 mm thick, and embedded in cryomold standard (Sakura Finetek, Ca) using O.C.T. embedded medium (Sakura Finetek, Ca). […]
# Changes in lesion area were measured as follows. […] Lesion area was determined by measuring the infarcted (i.e., non-Fluoro-Jade B stained) areas of each brain section. […]
# Changes in neuronal degeneration were measured as follows. […] Fluoro-Jade B positive cells observed in the digital photographs were quantified using Image Pro-Plus image analysis software (Media Cybernetics, Silver Spring Md.). Extent of neuronal degeneration was determined by comparing the total number of Fluoro-Jade B positive cells per mm^2 area of the treated group to the same area of the corresponding vehicle-control group. The distance of each coronal section from bregma was determined.
# Changes in area of brain tissue loss were measured as follows. […] Area of brain tissue loss, associated with the ischemic insult, was measured by […]. A percentage value was then determined by dividing the area of brain tissue loss associated with the stroke by the total area of the contralateral hemisphere. […]
# [2] = tested on: vascular endothelial growth factor (VEGF); assay: Brain VEGF gene expression in mice after intravenous injection; assay type: in vivo, Swiss Webster mice; settings: 20 mg/kg i.v., four hours, quantitative real time PCR normalized to 18s RNA
# Method: The effect of compounds of the present invention on regulation of cytoprotective and neuroprotective gene expression in brain was evaluated. In one series of experiments, male Swiss Webster mice were administered by intravenous injection various compounds of the present invention. Animals treated by intravenous injection received a 6 ml/kg volume of either 5% Dextrose with an equimolar amount of Meglumine (vehicle control) or 20 mg/kg of a compound of the present invention in 5% dextrose with an equimolar amount of Meglumine Animals were euthanized four hours later and their brains placed in RNAlater (Ambion, Austin Tex.) for subsequent analysis. Tissues were homogenized in Trizol (Invitrogen, Carlsbad Calif.) using 5-mm steel beads in a Mixer Mill (Qiagen, Valencia Calif.). RNA was isolated from the Trizol solution and then further purified using RNeasy kit (Qiagen). cDNA was prepared from […] total RNA using Omniscript reverse transcriptase (Qiagen) and random hexamers. Quantitative real time PCR was performed in a 7900HT instrument (Applied Biosystems, Foster City Calif.) using TaqMan Assays-on-Demand (Applied Biosystems). Gene expression levels were normalized to that of 18s RNA.
compound,measurement,setting,value
"COc1ccc(Oc2ccc3c(O)c(C(=O)NCC(=O)O)ncc3c2)cc1 [Compound F, {[4-Hydroxy-7-(4-methoxy-phenoxy)-isoquinoline-3-carbonyl]-amino}-acetic acid]",lesion area,[1]; FIG. 1,reduced
same,neuronal degeneration (Fluoro-Jade B positive cells),[1]; FIG. 2,reduced
same,brain tissue loss,[1]; FIG. 3,reduced
same,VEGF gene expression in brain,[2],1.5
